The values that follow come from patent US12060347B2 (BRISTOL-MYERS SQUIBB COMPANY, priority 2016, dated 2024).

The target in this experiment is T1, human PAR4 (Homo sapiens, UniProt Q96RI0).
T1 construct: expressed in transfected cells; host or cells: HEK293 PAR4 Clone 1.2A (BMS Arctic ID 383940)
T1 sequence (Q96RI0 18-385): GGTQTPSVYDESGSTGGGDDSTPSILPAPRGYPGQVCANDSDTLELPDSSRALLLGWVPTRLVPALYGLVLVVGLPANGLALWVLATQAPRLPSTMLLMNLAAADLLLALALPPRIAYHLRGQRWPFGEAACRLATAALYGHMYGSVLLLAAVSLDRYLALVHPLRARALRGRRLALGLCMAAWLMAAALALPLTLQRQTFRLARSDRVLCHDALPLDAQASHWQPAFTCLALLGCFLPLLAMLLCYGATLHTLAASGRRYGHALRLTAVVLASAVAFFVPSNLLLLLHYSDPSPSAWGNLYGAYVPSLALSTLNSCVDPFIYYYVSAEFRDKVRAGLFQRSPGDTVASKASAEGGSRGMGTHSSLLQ
The experiment can be described thus: PAR4 FLIPR assay: antagonism of agonist-peptide-induced calcium mobilization in PAR4-expressing HEK293 cells. The note with it: H-Ala-Phe(4-F)-[…]NH2-induced intracellular calcium mobilization, 11-point curves. The experiment is classed as cell-based. (Calcium flux is commonly read through the fluorescence of an indicator in the cells.)
In the case of `COc1cnc2c(-c3nc4cc(F)c(O[C@@H](C)[C@@H](C)OC(=O)Nc5cnc(C(=O)N6CCOCC6)nc5)cc4s3)cc(C)cc2n1` [Example 437, (2R,3S)-3-((5-fluoro-2-(2-methoxy-7-methylquinoxalin-5-yl)benzo[d]thiazol-6-yl)oxy)butan-2-yl (2-(morpholine-4-carbonyl)pyrimidin-5-yl)carbamate], the IC50 (commonly the concentration needed to halve the response being measured) is 4.9 nM.

`COc1cnc2c(-c3nc4cc(F)c(O[C@@H](C)[C@@H](C)OC(=O)Nc5ccc(C(=O)N(C)C)nc5)cc4s3)cc(C)cc2n1` [Example 438, (2R,3S)-3-((5-fluoro-2-(2-methoxy-7-methylquinoxalin-5-yl)benzo[d]thiazol-6-yl)oxy)butan-2-yl (6-(dimethylcarbamoyl)pyridin-3-yl)carbamate]: the IC50 amounted to 1.9 nM.

`COc1cnc2c(-c3nc4cc(F)c(O[C@@H](C)[C@@H](C)OC(=O)Nc5ccc(C(=O)NC[C@@H](C)O)nc5)cc4s3)cc(C)cc2n1` [Example 439, (2R,3S)-3-((5-fluoro-2-(2-methoxy-7-methylquinoxalin-5-yl)benzo[d]thiazol-6-yl)oxy)butan-2-yl (6-(((R)-2-hydroxypropyl)carbamoyl)pyridin-3-yl)carbamate]: the IC50 stood at 0.9 nM.

As to `CNC(=O)c1ncc(NC(=O)O[C@H](C)[C@H](C)Oc2cc3sc(-c4cc(C)cc5nc(OC)cnc45)nc3cc2F)cn1` [Example 440, (2R,3S)-3-((5-fluoro-2-(2-methoxy-7-methylquinoxalin-5-yl)benzo[d]thiazol-6-yl)oxy)butan-2-yl (2-(methylcarbamoyl)pyrimidin-5-yl)carbamate], the half-maximal inhibitory concentration (IC50) turned out to be 0.8 nM.

In the case of `COc1cnc2c(-c3nc4cc(F)c(O[C@@H](C)[C@@H](C)OC(=O)Nc5ccc(C(=O)NC[C@H](C)O)nc5)cc4s3)cc(C)cc2n1` [Example 441, (2R,3S)-3-((5-fluoro-2-(2-methoxy-7-methylquinoxalin-5-yl)benzo[d]thiazol-6-yl)oxy)butan-2-yl (6-(((S)-2-hydroxypropyl)carbamoyl)pyridin-3-yl)carbamate], the concentration for half-maximal inhibition (IC50) amounted to 0.9 nM.

In the case of `COc1cnc2c(-c3nc4cc(F)c(OC[C@@H](C)OC(=O)Nc5ccnc(C(=O)NCCO)c5)cc4s3)cc(C)cc2n1` [Example 442, (R)-1-((5-fluoro-2-(2-methoxy-7-methylquinoxalin-5-yl)benzo[d]thiazol-6-yl)oxy)propan-2-yl (2-((2-hydroxyethyl)carbamoyl)pyridin-4-yl)carbamate], the 50% inhibitory concentration (IC50) stood at 0.8 nM.

With `CNC(=O)c1cc(NC(=O)O[C@H](C)COc2cc3sc(-c4cc(C)cc5nc(OC)cnc45)nc3cc2F)ccn1` [Example 443, (R)-1-((5-fluoro-2-(2-methoxy-7-methylquinoxalin-5-yl)benzo[d]thiazol-6-yl)oxy)propan-2-yl (2-(methylcarbamoyl)pyridin-4-yl)carbamate], the IC50 was 0.6 nM.

For the molecule `COc1cnc2c(-c3nc4cc(F)c(OC[C@@H](C)OC(=O)Nc5ccnc(C(N)=O)c5)cc4s3)cc(C)cc2n1` [Example 444, (R)-1-((5-fluoro-2-(2-methoxy-7-methylquinoxalin-5-yl)benzo[d]thiazol-6-yl)oxy)propan-2-yl (2-carbamoylpyridin-4-yl)carbamate], the IC50 stood at 0.8 nM.

Regarding `COc1cnc2c(-c3nc4cc(F)c(OC[C@@H](C)OC(=O)Nc5ccc(C(=O)NCCO)nc5)cc4s3)cc(C)cc2n1` [Example 445, (R)-1-((5-fluoro-2-(2-methoxy-7-methylquinoxalin-5-yl)benzo[d]thiazol-6-yl)oxy)propan-2-yl (6-((2-hydroxyethyl)carbamoyl)pyridin-3-yl)carbamate], the IC50 was found to be 3.2 nM.

Take `COc1cnc2c(-c3nc4cc(F)c(O[C@@H](C)[C@@H](C)OC(=O)Nc5ccc(C(=O)NCCC(C)(C)O)nc5)cc4s3)cc(C)cc2n1` [Example 446, (2R,3S)-3-((5-fluoro-2-(2-methoxy-7-methylquinoxalin-5-yl)benzo[d]thiazol-6-yl)oxy)butan-2-yl (6-((3-hydroxy-3-methylbutyl)carbamoyl)pyridin-3-yl)carbamate]: the half-maximal inhibitory concentration (IC50) was 2.3 nM.

For `COc1cnc2c(-c3nc4cc(F)c(OC[C@@H](C)OC(=O)Nc5ccnc(C(=O)N(C)C)c5)cc4s3)cc(C)cc2n1` [Example 447, (R)-1-((5-fluoro-2-(2-methoxy-7-methylquinoxalin-5-yl)benzo[d]thiazol-6-yl)oxy)propan-2-yl (2-(dimethylcarbamoyl)pyridin-4-yl)carbamate], the IC50 worked out at 21 nM.

In the case of `COc1cnc2c(-c3nc4cc(F)c(OC[C@@H](C)OC(=O)Nc5ccc(C(=O)NCC(C)(C)O)nc5)cc4s3)cc(C)cc2n1` [Example 448, (R)-1-((5-fluoro-2-(2-methoxy-7-methylquinoxalin-5-yl)benzo[d]thiazol-6-yl)oxy)propan-2-yl (6-((2-hydroxy-2-methylpropyl)carbamoyl)pyridin-3-yl)carbamate], the IC50 came to 2.1 nM.

Turning to `COc1cnc2c(-c3nc4cc(F)c(OC[C@@H](C)OC(=O)Nc5ccc(C(=O)NC[C@@H](C)O)nc5)cc4s3)cc(C)cc2n1` [Example 449, (R)-1-((5-fluoro-2-(2-methoxy-7-methylquinoxalin-5-yl)benzo[d]thiazol-6-yl)oxy)propan-2-yl (6-(((R)-2-hydroxypropyl)carbamoyl)pyridin-3-yl)carbamate], the concentration for half-maximal inhibition (IC50) was 0.3 nM.

For `COc1cnc2c(-c3nc4cc(F)c(OC[C@@H](C)OC(=O)Nc5ccc(C(=O)NC[C@H](C)O)nc5)cc4s3)cc(C)cc2n1` [Example 450, (R)-1-((5-fluoro-2-(2-methoxy-7-methylquinoxalin-5-yl)benzo[d]thiazol-6-yl)oxy)propan-2-yl (6-(((S)-2-hydroxypropyl)carbamoyl)pyridin-3-yl)carbamate], the half-maximal inhibitory concentration (IC50) turned out to be 0.5 nM.

For `COc1cnc2c(-c3nc4cc(F)c(O[C@@H](C)[C@@H](C)OC(=O)Nc5ccnc(C(=O)NCCO)c5)cc4s3)cc(C)cc2n1` [Example 451, (2R,3S)-3-((5-fluoro-2-(2-methoxy-7-methylquinoxalin-5-yl)benzo[d]thiazol-6-yl)oxy)butan-2-yl (2-((2-hydroxyethyl)carbamoyl)pyridin-4-yl)carbamate], the IC50 was determined as 0.7 nM.

Regarding `COc1cnc2c(-c3nc4cc(F)c(O[C@@H](C)[C@@H](C)OC(=O)Nc5ccnc(C(=O)NC[C@@H](C)O)c5)cc4s3)cc(C)cc2n1` [Example 452, (2R,3S)-3-((5-fluoro-2-(2-methoxy-7-methylquinoxalin-5-yl)benzo[d]thiazol-6-yl)oxy)butan-2-yl (2-(((R)-2-hydroxypropyl)carbamoyl)pyridin-4-yl)carbamate], the IC50 is 0.4 nM.

In the case of `COc1cnc2c(-c3nc4cc(F)c(O[C@@H](C)[C@@H](C)OC(=O)Nc5ccnc(C(N)=O)c5)cc4s3)cc(C)cc2n1` [Example 453, (2R,3S)-3-((5-fluoro-2-(2-methoxy-7-methylquinoxalin-5-yl)benzo[d]thiazol-6-yl)oxy)butan-2-yl (2-carbamoylpyridin-4-yl)carbamate], the IC50 was determined as 0.6 nM.

For the molecule `COc1cnc2c(-c3nc4cc(F)c(O[C@@H](C)[C@@H](C)OC(=O)Nc5cnc(C(N)=O)nc5)cc4s3)cc(C)cc2n1` [Example 454, (2R,3S)-3-((5-fluoro-2-(2-methoxy-7-methylquinoxalin-5-yl)benzo[d]thiazol-6-yl)oxy)butan-2-yl (2-carbamoylpyrimidin-5-yl)carbamate], the half-inhibitory concentration (IC50) was 1.3 nM.
